This data set in a line: xn = mol fraction of the nth substance listed. The note with it: Fluid (supercritical or subcritical phases), Taylor-Aris chromatographic method, x1 = 0.

Regarding `Cc1cc(C)cc(C)c1` [1,3,5-trimethylbenzene] + O=C=O, the binary diffusion coefficient is 1.04e-08 m2/s (313.16 K, 15000 kPa); 9.15e-09 m2/s (313.16 K, 20000 kPa); 8.21e-09 m2/s (313.16 K, 25000 kPa); 7.78e-09 m2/s (313.16 K, 30000 kPa); 7.46e-09 m2/s (313.16 K, 35000 kPa); 1.19e-08 m2/s (323.16 K, 15000 kPa). Further, the binary diffusion coefficient (323.16 K, 20000 kPa) turned out to be 1.11e-08 m2/s; the binary diffusion coefficient (323.16 K, 25000 kPa) is 9.33e-09 m2/s; the binary diffusion coefficient (323.16 K, 30000 kPa) stood at 9.23e-09 m2/s; the binary diffusion coefficient (323.16 K, 35000 kPa) came out at 8.6e-09 m2/s; the binary diffusion coefficient (333.16 K, 15000 kPa) was determined as 1.42e-08 m2/s; the binary diffusion coefficient (333.16 K, 20000 kPa) was 1.23e-08 m2/s. Further, the binary diffusion coefficient was 1.15e-08 m2/s (333.16 K, 25000 kPa); 1.04e-08 m2/s (333.16 K, 30000 kPa); 9.89e-09 m2/s (333.16 K, 35000 kPa).

On to `Nc1ccccc1` [aniline] + O=C=O, for which the binary diffusion coefficient came to 1.02e-08 m2/s (313.16 K, 15000 kPa); 9.75e-09 m2/s (313.16 K, 20000 kPa); 9.06e-09 m2/s (313.16 K, 25000 kPa); 8.43e-09 m2/s (313.16 K, 30000 kPa); 7.76e-09 m2/s (313.16 K, 35000 kPa); 1.18e-08 m2/s (323.16 K, 15000 kPa). Further, the binary diffusion coefficient stood at 1.08e-08 m2/s (323.16 K, 20000 kPa); 9.66e-09 m2/s (323.16 K, 25000 kPa); 9.1e-09 m2/s (323.16 K, 30000 kPa); 8.7e-09 m2/s (323.16 K, 35000 kPa); 1.33e-08 m2/s (333.16 K, 15000 kPa); 1.19e-08 m2/s (333.16 K, 20000 kPa). For the same compound, the binary diffusion coefficient was found to be 1.1e-08 m2/s (333.16 K, 25000 kPa); 1.02e-08 m2/s (333.16 K, 30000 kPa); 9.47e-09 m2/s (333.16 K, 35000 kPa).

Turning to `C=Cc1ccccc1` [styrene] + O=C=O, the binary diffusion coefficient was determined as 1.19e-08 m2/s (313.16 K, 15000 kPa); 1.08e-08 m2/s (313.16 K, 20000 kPa); 9.58e-09 m2/s (313.16 K, 25000 kPa); 8.74e-09 m2/s (313.16 K, 30000 kPa); 8.27e-09 m2/s (313.16 K, 35000 kPa); 1.32e-08 m2/s (323.16 K, 15000 kPa). Further, the binary diffusion coefficient worked out at 1.12e-08 m2/s (323.16 K, 20000 kPa); 1.06e-08 m2/s (323.16 K, 25000 kPa); 9.2e-09 m2/s (323.16 K, 30000 kPa); 8.77e-09 m2/s (323.16 K, 35000 kPa); 1.55e-08 m2/s (333.16 K, 15000 kPa); 1.41e-08 m2/s (333.16 K, 20000 kPa). Besides, the binary diffusion coefficient (333.16 K, 25000 kPa) turned out to be 1.22e-08 m2/s; the binary diffusion coefficient (333.16 K, 30000 kPa) is 1.09e-08 m2/s; the binary diffusion coefficient (333.16 K, 35000 kPa) came out at 1.02e-08 m2/s.

For the origin of these results see the NIST ThermoML archive (doi:10.1021/je7000254).
